# Assay results as given in PMC10287695, “Non-covalent inhibitors of thioredoxin glutathione reductase with schistosomicidal activity in vivo” (Nature Communications, 2023).
# Where “and” joins values, the source holds several entries; their conditions need not be identical. Equal entries are not always repeated. Where two headings read alike, the source gives them in different places.
# How the values were obtained:
# [1] = molecular target: T1, TGR (Schistosoma mansoni, UniProt Q962Y6, X597U); test: NADPH consumption (oxidase activity); assay type: biochemical, S. mansoni; settings: replicates
# T1 construct: made in house
# Description: TRi-1, Stattic (both at 50 µM) and AF (20 µM) were incubated with 1 ml of 500 nM TGR and 100 µM NADPH in TGR reaction buffer for 30 min. The samples were desalted using a Zeba spin desalting column (Thermo Fisher Scientific) and 100 µl of the desalted sample was combined with 100 µl of 100 µM NADPH. NADPH consumption was monitored at 340 nm in triplicate. Compounds 1, 4, 6, and 7 (50 µM) were tested in the same fashion without the desalting step and with a first incubation step of 30 min for 6 and 7 and 2 h for 1 and 4.
# [2] = tested on: S. mansoni adult worms in mice; test: Schistosomicidal efficacy in infected mice, adult worms (42 d.p.i.); assay type: in vivo; settings: for Egg burden, Treated, individual mice / Worm burden, Treated, individual mice: Adult worm; for Egg burden, Treated, individual mice: eggs per 50 mg liver (Fig. 6); for decrease in egg burden / decrease in worm burden: mice
# Description: To assess the efficacy of the compounds in vivo against juvenile and adult worms, five female Swiss-Webster mice were randomly assigned for the control and experiment groups using a randomization tool embedded in GraphPad Prism. Mice were percutaneously exposed for 1 h to about 80 S. mansoni cercariae. Three- and six-weeks post infection, respectively, for juvenile and adult worms, mice were treated depending on their weight with formulations of the compounds, while the control mice received only the vehicle. Compounds were formulated with 10% DMSO and 10% Tween-80, and vortexed to obtain a uniform mixture. The mixture was sonicated twice for 5 min each time using a digital ultrasonic cleaner heated to 50 °C. Sodium chloride 0.9% (80% normal saline) was added to the mixture, briefly vortexed and sonicated one more time using the same conditions as previous. The investigators were blinded by which group of mice received a treatment and the vehicle, as injection was done by technicians from the Comparative Research Center of Rush University Medical Center. Using a 26 G, 3/8 in intradermal bevel needle, each mouse was administered intraperitoneally with 100 µl of the formulated compound suspension at 50 mg/kg, 100 mg/kg and 200 mg/kg. Mice treated three weeks post infection for juvenile worms were euthanized three weeks post treatment and mice treated six weeks post infection were euthanized one week post treatment with 0.018 ml of Euthasol and 5.85 mg/ml heparin and perfused. The mesenteric and hepatic portal veins of the mice were carefully scanned under the microscope to extract any remaining S. mansoni adult worms and worm burdens were determined. Egg burden was determined by weighing 50 mg of liver tissue from each of treated and control mice. The liver tissues were digested with 5% KOH at 37 °C overnight and washed twice with PBS. The number of eggs per 50 mg of liver tissue was determined using a Keyence BZ-X800 microscope using the egg autofluorescence.
# [3] = molecular target: T2, TGR (Schistosoma mansoni, UniProt Q962Y6); assay type: biochemical, S. mansoni; settings: for mode of inhibition (NADPH varied): steady state
# T2 construct: made in house
# T2 sequence (Q962Y6 1-598): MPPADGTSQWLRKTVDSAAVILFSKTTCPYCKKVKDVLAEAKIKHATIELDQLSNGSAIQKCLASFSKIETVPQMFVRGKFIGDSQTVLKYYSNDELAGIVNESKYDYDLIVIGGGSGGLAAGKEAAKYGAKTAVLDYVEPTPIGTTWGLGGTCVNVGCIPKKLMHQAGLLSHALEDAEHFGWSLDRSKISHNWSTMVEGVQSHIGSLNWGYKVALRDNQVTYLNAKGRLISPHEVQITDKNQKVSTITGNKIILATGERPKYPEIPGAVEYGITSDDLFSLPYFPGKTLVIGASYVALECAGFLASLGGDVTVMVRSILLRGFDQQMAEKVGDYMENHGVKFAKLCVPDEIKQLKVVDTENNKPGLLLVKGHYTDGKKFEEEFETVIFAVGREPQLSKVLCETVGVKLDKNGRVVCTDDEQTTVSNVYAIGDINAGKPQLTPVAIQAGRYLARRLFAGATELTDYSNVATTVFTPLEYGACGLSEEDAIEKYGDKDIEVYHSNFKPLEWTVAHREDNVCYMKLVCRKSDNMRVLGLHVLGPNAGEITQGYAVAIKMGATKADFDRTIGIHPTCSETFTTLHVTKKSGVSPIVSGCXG
# Description: Master mixes with varying concentrations of NADPH were made, each with 2 nM TGR in reaction buffer. Inhibitor (2 µl) was added to a 96 well microplate in triplicate for each NADPH and inhibitor concentration, and 192 µl of the master buffer was added to each well. The reaction incubated for 15 min and 6 µl of 50 mM DTNB was added to each well. The kinetic rate was measured at A412 for 5 min.
# [4] = 1 x 100 mg/kg i.p. at 42 d.p.i.
# [5] = 2 x 100 mg/kg i.p. (1: bid at 42 d.p.i.; 6: at 42 and 45 d.p.i.)
# [6] = 1 x 100 mg/kg, listed as 8VP101
# [7] = 2 x 50 mg/kg i.p. at 42 and 45 d.p.i.
# [8] = inhibitor 1 µM, NADPH 5 (unit not given)
# [9] = inhibitor 1 µM, NADPH 10 (unit not given)
# [10] = inhibitor 1 µM, NADPH 30 (unit not given)
# [11] = inhibitor 1 µM, NADPH 100 (unit not given)
# [12] = inhibitor 3 µM, NADPH 5 (unit not given)
# [13] = inhibitor 3 µM, NADPH 10 (unit not given)
# [14] = inhibitor 3 µM, NADPH 30 (unit not given)
# [15] = inhibitor 3 µM, NADPH 100 (unit not given)
compound,measurement,setting,value
"CC(=O)OC[C@H]1O[C@@H]([S-])[C@H](OC(C)=O)[C@@H](OC(C)=O)[C@@H]1OC(C)=O.CCP(CC)CC.[Au+] [AF, auranofin, reference compound]",NADPH consumption (rate/ΔOD340),[1],-0.0002869 and -0.0002715 and -0.0002247
Cc1oc(-c2ccc3c(c2)OCO3)nc1CN[C@@H]1C[C@@H]2C[C@H]([C@H]1C)C2(C)C [Compound 1],NADPH consumption (rate/ΔOD340),[1],-0.000815 and -0.0007737 and -0.0007308
same,"Egg burden, Treated, individual mice","[2]; 1 x 100 mg/kg, listed as 8VP70",1302 and 1436 and 1582 and 1478 and 1434
same,"Worm burden, Treated, individual mice","[2]; 1 x 100 mg/kg, listed as 8VP70",15 and 16 and 12
same,"Egg burden, Treated, individual mice","[2]; 2 x 100 mg/kg, listed as 8VP70",1572 and 1426 and 1565 and 1335 and 1329
same,"Worm burden, Treated, individual mice","[2]; 2 x 100 mg/kg, listed as 8VP70",12 and 10 and 9 and 8
same,decrease in egg burden,[2]; [4],40% and 40.5%
same,decrease in worm burden,[2]; [4],44% and 43.5%
same,decrease in egg burden,[2]; [5],48% and 47.5%
same,decrease in worm burden,[2]; [5],54% and 53.6%
CCc1ccccc1-c1nc(CN[C@@H]2C[C@@H]3C[C@H]([C@H]2C)C3(C)C)c(C)o1 [Compound 2],"Egg burden, Treated, individual mice",[2]; [6],296 and 301 and 311 and 299 and 321
same,"Worm burden, Treated, individual mice",[2]; [6],8 and 6 and 4 and 5
same,"Egg burden, Treated, individual mice","[2]; 2 x 50 mg/kg, listed as 8VP101",319 and 335 and 372 and 393 and 436
same,"Worm burden, Treated, individual mice","[2]; 2 x 50 mg/kg, listed as 8VP101",5 and 10 and 8 and 4 and 3
same,decrease in egg burden,[2]; [4],73% and 73.3%
same,decrease in worm burden,[2]; [4],85% and 85.2%
same,decrease in egg burden,[2]; [7],69% and 68.8%
same,decrease in worm burden,[2]; [7],43% and 42.9%
Cc1oc(-c2ccccc2)nc1CN[C@@H]1C[C@@H]2C[C@H]([C@H]1C)C2(C)C [Compound 3],Vmax,"[3]; 70 µM inhibitor, 6 hr preincubation",0.0086 ± 0.0003 ΔA412/min
same,avg rate,"[3]; NADPH 3 µM, 35 µM compound",0.003992
same,avg rate,"[3]; NADPH 3 µM, 50 µM compound",0.003778
same,avg rate,"[3]; NADPH 3 µM, 70 µM compound",0.003468
same,avg rate,"[3]; NADPH 10 µM, 35 µM compound",0.007014
same,avg rate,"[3]; NADPH 10 µM, 50 µM compound",0.006219
same,avg rate,"[3]; NADPH 10 µM, 70 µM compound",0.005582
same,avg rate,"[3]; NADPH 30 µM, 35 µM compound",0.009551
same,avg rate,"[3]; NADPH 30 µM, 50 µM compound",0.008305
same,avg rate,"[3]; NADPH 30 µM, 70 µM compound",0.007122
same,avg rate,"[3]; NADPH 100 µM, 35 µM compound",0.01022
same,avg rate,"[3]; NADPH 100 µM, 50 µM compound",0.009229
same,avg rate,"[3]; NADPH 100 µM, 70 µM compound",0.00846
same,mode of inhibition (NADPH varied),[3],uncompetitive inhibition
same,mode of inhibition (NADPH varied),[3]; listed as 3 (8VP83),uncompetitive behavior
Cc1oc(C2CCCCC2)nc1CN[C@@H]1C[C@@H]2C[C@H]([C@H]1C)C2(C)C [Compound 4],NADPH consumption (rate/ΔOD340),[1],-0.0007477 and -0.0007112 and -0.0007089
CC1C(NCc2cn(C3OCC(O)C(O)C3O)c3ccccc23)CC2CC1C2(C)C (stereo not shown) [Compound 9],Vmax,[3]; 10 µM fast inhibitor,0.012 ± 0.00012 ΔA412/min
same,Vmax,[3]; 30 µM fast inhibitor,0.0056 ± 0.00043 ΔA412/min
same,Vmax,[3]; 60 µM fast inhibitor,0.0033 ± 0.00024 ΔA412/min
same,"Rate, single replicate",[3]; [8],0.004595 and 0.004128 and 0.004463
same,avg rate,[3]; [8],0.004395
same,"Rate, single replicate",[3]; [9],0.005356 and 0.005454 and 0.005186
same,avg rate,[3]; [9],0.005332
same,"Rate, single replicate",[3]; [10],0.00852 and 0.006935
same,avg rate,[3]; [10],0.007727
same,"Rate, single replicate",[3]; [11],0.008379 and 0.007686 and 0.007654
same,avg rate,[3]; [11],0.007906
same,"Rate, single replicate",[3]; [12],0.002898 and 0.002979 and 0.003645
same,avg rate,[3]; [12],0.003174
same,"Rate, single replicate",[3]; [13],0.003704 and 0.003359 and 0.003645
same,avg rate,[3]; [13],0.003569
same,"Rate, single replicate",[3]; [14],0.005584
same,avg rate,[3]; [14],0.02094
same,"Rate, single replicate",[3]; [15],0.004192 and 0.005 and 0.004489
same,avg rate,[3]; [15],0.00456
same,"Rate, single replicate","[3]; inhibitor 10 µM, NADPH 5 (unit not given)",0.00023 and 0.001097 and 0.0005855
same,"Rate, single replicate","[3]; inhibitor 10 µM, NADPH 10 (unit not given)",0.001061 and 0.0007127 and 0.0008019
same,"Rate, single replicate","[3]; inhibitor 10 µM, NADPH 30 (unit not given)",0.0004565 and 0.000593
same,"Rate, single replicate","[3]; inhibitor 10 µM, NADPH 100 (unit not given)",0.0001918 and 0.000912 and 1.594e-5
same,mode of inhibition (NADPH varied),[3],noncompetitive inhibition
